# According to ChEMBL document CHEMBL4251700, “Novel Staphyloxanthin Inhibitors with Improved Potency against Multidrug Resistant Staphylococcus aureus” (ACS Med Chem Lett, 2018):
# Substitutions are numbered along the chain they refer to. pIC50: −log10 of the molar value. Activity calls are given as the source filed them. No cut-off for these calls is given here.
# Assays:
# [1] = biological target: T1, 4,4'-diapophytoene desaturase (4,4'-diaponeurosporene-forming) (Staphylococcus aureus (strain Newman), UniProt O07855); experiment: Inhibition of Staphylococcus aureus Newman […]-tagged CrtN expressed in Escherichia coli BL21(DE3))/pET28a::CrtN assessed as reduction in staphyloxanthin levels using diapophytoene as substrate after overnight incubation; parameters: species or system Staphylococcus aureus subsp. aureus str. Newman
# T1 sequence (O07855 whole entry): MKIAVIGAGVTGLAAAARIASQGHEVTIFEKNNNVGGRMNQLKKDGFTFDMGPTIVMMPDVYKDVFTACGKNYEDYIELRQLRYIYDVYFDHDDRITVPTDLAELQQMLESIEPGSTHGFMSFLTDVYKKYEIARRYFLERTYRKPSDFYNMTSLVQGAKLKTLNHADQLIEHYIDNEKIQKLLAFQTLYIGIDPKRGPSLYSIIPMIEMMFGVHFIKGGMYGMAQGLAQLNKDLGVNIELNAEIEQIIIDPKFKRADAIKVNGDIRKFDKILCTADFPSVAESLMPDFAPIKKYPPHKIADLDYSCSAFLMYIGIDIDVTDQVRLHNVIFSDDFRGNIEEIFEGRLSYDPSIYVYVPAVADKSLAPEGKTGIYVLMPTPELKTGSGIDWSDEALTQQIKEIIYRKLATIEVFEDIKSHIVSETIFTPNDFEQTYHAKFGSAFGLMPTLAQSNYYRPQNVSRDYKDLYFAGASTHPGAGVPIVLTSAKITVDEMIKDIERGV
# [2] = biological target: T2, 4,4'-diapophytoene desaturase (4,4'-diaponeurosporene-forming) (Staphylococcus aureus (strain Mu50 / ATCC 700699), UniProt Q99R76); experiment: Inhibition of CrtN in vancomycin-intermediate Staphylococcus aureus Mu50 assessed as reduction in staphyloxanthin levels after 48 hrs by spectrophotometric method-based pigment inhibition assay; parameters: species or system Staphylococcus aureus subsp. aureus Mu50
# T2 sequence (Q99R76 whole entry): T1 sequence (O07855 whole entry)
# [3] = Solubility of the compound in water at 10 mg measured after 24 hrs by HPLC method; type: physicochemical
# Staphylococcus aureus [4] = experiment: Growth inhibition of Staphylococcus aureus Newman at 0.2 mM incubated overnight measured at 30 mins interval; type: organism-based; settings: 0.5 h, 200 µM
# Staphylococcus aureus [5] = experiment: Growth inhibition of methicillin-resistant Staphylococcus aureus USA400 MW2 at 0.2 mM incubated overnight measured at 30 mins interval; type: organism-based; settings: 0.5 h, 200 µM
# Nannizzia gypsea = experiment: Antifungal activity against Microsporum gypseum after 7 days by broth microdilution method; type: functional, organism-based
# Trichophyton verrucosum = experiment: Antifungal activity against Trichophyton verrucosum after 7 days; type: functional, organism-based
# [6] = biological target: T3, 4,4'-diapophytoene desaturase (4,4'-diaponeurosporene-forming) (Staphylococcus aureus (strain Newman)) (UniProt O07855); experiment: Inhibition of CrtN in Staphylococcus aureus Newman assessed as H2O2-induced bacterial death by measuring reduction in bacterial survival at 1 uM pretreated for 24 hrs followed by H2O2 addition measured after 30 mins by serial dilution method; settings: Staphylococcus aureus subsp. aureus str. Newman
# T3 sequence (whole entry): T1 sequence (O07855 whole entry)
# [7] = biological target: T4, 4,4'-diapophytoene desaturase (4,4'-diaponeurosporene-forming) (Staphylococcus aureus (strain MW2)) (UniProt Q8NUQ6); experiment: Inhibition of CrtN in Staphylococcus aureus USA400 MW2 assessed as H2O2-induced bacterial death by measuring reduction in bacterial survival at 1 uM preincubated for 24 hrs followed by H2O2 addition measured after 30 mins by serial dilution method; settings: Staphylococcus aureus subsp. aureus MW2
# T4 sequence (whole entry): T1 sequence (O07855 whole entry) with R500Q
# Staphylococcus aureus [8] = experiment: Induction of sensitization to immune clearance towards Staphylococcus aureus Mu50 infected in human whole blood assessed as bacterial killing by measuring bacterial survival after 6 hrs by serial dilution method relative to control; type: functional
# Staphylococcus aureus [9] = experiment: Induction of sensitization to immune clearance towards Staphylococcus aureus USA300 LAC infected in human whole blood assessed as bacterial killing by measuring bacterial survival after 6 hrs by serial dilution method relative to control; type: functional
# Staphylococcus aureus [10] = experiment: Antibacterial activity against Staphylococcus aureus Newman infected in BALB/c mouse assessed as reduction of bacterial burden in heart at 0.4 mg, ip bid administered at 12 hrs prior to bacterial infection dosed at 12 intervals for 4.5 days relative to control; type: functional; parameters: scale not given: the % may be the effect or the level left
# Staphylococcus aureus [11] = experiment: Antibacterial activity against Staphylococcus aureus Newman infected in BALB/c mouse assessed as reduction of bacterial burden in liver at 0.4 mg, ip bid administered at 12 hrs prior to bacterial infection dosed at 12 intervals for 4.5 days relative to control; type: functional; parameters: scale not given: the % may be the effect or the level left
# Staphylococcus aureus [12] = experiment: Antibacterial activity against vancomycin-intermediate Staphylococcus aureus Mu50 infected in BALB/c mouse assessed as reduction of bacterial burden in liver at 0.4 mg, ip bid for 3.5 days administered 6 hrs post bacterial infection measured 84 hrs post infection; type: functional, organism-based
# Staphylococcus aureus [13] = experiment: Antibacterial activity against linezolid-resistant Staphylococcus aureus NRS271 infected in BALB/c mouse assessed as reduction of bacterial burden in liver at 0.1 mg, ip bid administered at 12 hrs prior to bacterial infection dosed at 12 intervals for 4.5 days; type: functional, organism-based
# Staphylococcus aureus [14] = experiment: Antibacterial activity against linezolid-resistant Staphylococcus aureus NRS271 infected in BALB/c mouse assessed as reduction of bacterial burden in heart at 0.1 mg, ip bid for 3.5 days administered 6 hrs post bacterial infection measured 84 hrs post infection; type: functional; parameters: scale not given: the % may be the effect or the level left
# Staphylococcus aureus [15] = experiment: Antibacterial activity against linezolid-resistant Staphylococcus aureus NRS271 infected in BALB/c mouse assessed as log reduction of colony forming units in liver at 0.1 mg, ip bid for 3.5 days administered 6 hrs post bacterial infection measured 84 hrs post infection; type: functional
# [16] = Cytotoxicity against human HepG2 cells after 72 hrs by CCK8 assay; type: cell-based
# Staphylococcus aureus [17] = experiment: Antibacterial activity against linezolid-resistant Staphylococcus aureus NRS271 infected in BALB/c mouse assessed as reduction of bacterial burden in heart at 0.1 mg, ip bid administered at 24 hrs prior to bacterial infection dosed at 12 intervals for 4.5 days
# Staphylococcus aureus [18] = experiment: Antibacterial activity against Staphylococcus aureus Newman infected in BALB/c mouse assessed as reduction of bacterial burden in liver at 0.1 mg, ip bid for 3.5 days administered 6 hrs post bacterial infection measured 84 hrs post infection relative to control; parameters: scale not given: the % may be the effect or the level left
smiles,measurement,setting,value
CN(C/C=C/C=C/c1ccc(C(F)(F)F)cc1)Cc1ccc2c(c1)OCCO2.Cl,pIC50,[1],6.57
same,pIC50,[2],> 10.00
same,solubility at 24 h,[3],7900 µg/mL
same,growth inhibition (GI),Staphylococcus aureus [4],Non-Toxic
same,growth inhibition (GI),Staphylococcus aureus [5],Non-Toxic
same,Activity,Nannizzia gypsea,inactive
same,Activity,Trichophyton verrucosum,inactive
same,inhibition,[6],Active
same,inhibition,[7],Active
same,Survival,Staphylococcus aureus [8],<0.5%
same,Survival,Staphylococcus aureus [9],<0.5%
same,Activity,Staphylococcus aureus [10],89.01%
same,Activity,Staphylococcus aureus [11],86.7%
same,Activity,Staphylococcus aureus [12],Active
same,Activity,Staphylococcus aureus [13],Active
same,Activity,Staphylococcus aureus [14],>90%
same,Activity,Staphylococcus aureus [15],<=0.75 log10CFU
same,CC50 at 72 h,[16],67800 nM
same,Activity,Staphylococcus aureus [17],Active
same,Activity,Staphylococcus aureus [18],99%
